Test: XRPD (Rietveld) polymorph determination of samples made by literature processes
Format: physicochemical
Details: samples generated following referenced literature procedures; validated XRPD method
Excerpt: A Rietveld analysis was developed that allowed quantitative determination of Form B in Form A down to a detection limit at 5%. Upon analysis, it became apparent that the desired polymorph, in any reasonable degree of purity, could not be produced by the known procedures, and indeed, even a specific ratio of polymorphs was not consistently produced by the known procedures. As discussed above, such a situation is highly undesirable from both a medical and a regulatory standpoint.
All prior processes for producing norastemizole free base, described in art known to the applicants, were examined. The samples were generated following the referenced procedures and were tested using the validated XRPD method.

SMILES | Polymorph Results, % Form B
Fc1ccc(Cn2c(NC3CCNCC3)nc3ccccc32)cc1 [H1632-4A] | 91%
Fc1ccc(Cn2c(NC3CCNCC3)nc3ccccc32)cc1 [H1632-5A] | 90%
Fc1ccc(Cn2c(NC3CCNCC3)nc3ccccc32)cc1 [H1632-6A] | 100%
Fc1ccc(Cn2c(NC3CCNCC3)nc3ccccc32)cc1 [H1632-30A] | 100%
Fc1ccc(Cn2c(NC3CCNCC3)nc3ccccc32)cc1 [R1632-7A] | 86%

Test: not given
Details: factor between polymorphs; cited from earlier work

SMILES | difference in bio-activity between form A and form B
CCCCCCCCCCCCCCCC(=O)OC[C@@H](NC(=O)C(Cl)Cl)[C@H](O)c1ccc([N+](=O)[O-])cc1 [Chloramphenicol-3-palmitate] | eight

From US6627646B2 (Sepracor Inc., priority 2001, dated 2003)
